In patent US8653048B2 (Sanlugen Pharmatech Ltd., priority 2009, dated 2014):

Columns and labels:
[1] = test system: A549: a human lung cancer cell line; assay: MTT analytical method, A549 cells; format: cell-based; details: 72 h
From the text: (§1) MTT analytical method was used to test the prodrugs for various tumor cells.
(§2) • 1) Cell lines: NCI-H460, A549, LOVO, HT-29, MDA-MB-231, SGC7901, HepG2 or BEL-7402 cell lines. Culture: adherent culturing in D-MEM (Hyclone, Inc.) containing 10% fetal calf serum. The initial cell concentration was about 3×10^5 /mL. The cell was passaged by 1:3 dilution in every 2-3 days. On the day before the test, the cell was passaged by 1:2 dilution, the cell concentration for the test was 5-10×10^5 /mL. • 2) Dissolution and dilution of compounds: according to the weight and molecular weight of the drugs provided, 100-200 μL of DMSO was added. Then normal saline was added to make the final diluted concentration of the drugs be 5 mM (Note that the final concentration of DMSO should not be more than 10%). • 3) D-MEM or RPMI 1640 cell culture medium, Gibco, Inc. • 4) Fetal calf serum Hyclone, Inc. • 5) Cell dissociation buffer, 0.25% Trypsin+0.02% EDTA. • 6) MTT solution, MTT Powder (Sigma) were dissolved in PBS buffer solution to make a solution of 5 mg/mL. The solution was filtered by a 0.22 μm micropore membrane and stored at −20° C. • 7) PBS buffer solution. • 8) 10% acidified SDS, 0.01N HCl. • 9) Centrifuge tubes, haustorial tubes etc. (BD, Inc.); 96-well plates (Costatr, Inc.) Procedures: • 1) Cell inoculation: Cells grown for 24 hours after passage, which cells were in good growth state, were used. The cells were harvested by the routine method. The cell concentration was adjust with a fresh culture solution to 2×10^5/mL (for adherent cells)-3×10^5/mL (for suspension cells). The adherent cells were inoculated at 100 μL/well and then cultivated in an incubator with 5% CO2 at 37° C. for 24 h. Thereafter the used culture solution was removed and 95 μL/well of fresh culture solution was added. The suspension cells were inoculated at 95 μL/well directly. • 2) Drugs treatment: 9 concentration grades were designed for every drug, and every concentration had 3 wells. The control group had 5 wells. The control group was tested simultaneously in each test. The final concentrations of a drug added were […], and 5 μL normal saline was added to the control group. • 3) Cell culture and detection: the cells were cultured in an incubator with 5% CO2 at 37° C. for 72 h after the drug was added, then 10 μL MTT was added to each well and the culture was continued for 4 h. 100 μL of 10% SDS (containing 0.01N HCl) was added to each well. After 24 h, the absorbance (A) of each well was determined by Bio-rad 680 ELISA with the detection wavelength of 570 nm and the reference wavelength of 630 nm. Calculation:
(§3) First, the absorbance (A) of each well was averaged (removing any data with big difference). […] A0 was the mean absorbance of the control wells. The effect curve of the drug concentration was drawn using EXCEL software and the drug concentration for 50% cell survival was calculated according to an appropriate computing methods.

[2] = test system: NCI-H460: a human lung cancer cell line; assay: MTT analytical method, NCI-H460 cells; format: cell-based; details: 72 h
From the text: as §1, §2, §3

[3] = test system: HT29: a human colon cancer cell line; assay: MTT analytical method, HT29 cells; format: cell-based; details: HT-29, 72 h
From the text: as §1, §2, §3

[4] = test system: SGC7901: a human gastric cancer line; assay: MTT analytical method, SGC7901 cells; format: cell-based; details: SGC-7901, 72 h
From the text: as §1, §2, §3

[5] = test system: MDA-MB-231: a human breast cancer line; assay: MTT analytical method, MDA-MB-231 cells; format: cell-based; details: MDA-MB-231, MTT, 72 h
From the text: as §1, §2, §3

[6] = In vitro stability in simulated intestinal fluid (HPLC); format: physicochemical; details: for stability in simulated intestinal fluid (in words): 0-24 h; for HPLC peak area of drug / Degrade %: simulated intestinal fluid
[7] = Physiological stability in PBS (pH=7.4) (HPLC); format: physicochemical; details: for stability in PBS (pH=7.4) (in words): 0-24 h; for HPLC peak area of drug: PBS (pH = 7.4)
[8] = Dissolution in water (description of material); format: physicochemical; details: white powder
[9] = test system: NCI-H460 tumor transplanted in nude mice; assay: NCI-H460 tumor transplanted in nude mice, intravenous administration; details: for weight loss rate: NCI-H460 nude mice; for effect on NCI-H460 tumor (growth curve and tumor weight), in words: i.v. every three days x4, SL-01 5, 10, 20 mg/Kg, GEM 10 mg/Kg
Method: The highest concentrations of both were 10 mg/mL and 240 mg/mL, respectively. […] Assuming that each mouse weighed 20 g and 0.1 mL of drug solution was administered, then the dosage of SL-01 at 5, 10 or 20 mg/kg needed drug concentrations of 1, 2, 4 mg/mL, respectively.
Cell lines and cultivation: the NCI-H460 lung cancer cell line, the HepG2 liver cancer cell line, or the HT29 colon cancer cell line were cultured by adherent culturing in D-MEM (Gibco, Inc.) containing 10% fetal calf serum. These cells were passaged once by a dilution of 1:3 in every 2-3 days. The cells were collected when they were passaged to grow into 25 of 10 cm culture dishes.
3.1 The establishment of a model of transplanted tumors in nude mice: Well-grown NCI-H460 cells, HT29 cells or HepG2 cells were collected (25 of 10 cm culture dishes). The cell concentration was adjusted to 1.5×10^7/mL with serum-free DMEM. 200 μL cell suspension was inoculated into the right back of 6 weeks old male BALB/C nude mice by subcutaneous injection using a 1 mL syringe.
The treatment starting day was the first day (d0). The corresponding drugs were injected intravenously to the tail vein every three days. The administration volume to each mouse was adjusted according to its body weight. A total of four administrations (d0, d3, d6, d9) were applied. The long and short tumor pathlines were measured with a slide caliper at the beginning of the administration and every 3 days thereafter. The tumor volume V was calculated (V=½ab^2, a is the tumor long pathline, b is the tumor short pathline). The growth curve was drawn with the time as the horizontal axis, and tumor volume as the vertical axis. The experiment was terminated when the tumor size of the control group reached 3000 mm^3. Blood samples were taken from the eyeball and thereafter the nude mice were euthanized by back neck vertebra cervical dislocation. The tumor tissues were removed and weighed. The inhibition rate of tumor growth was calculated.

SMILES	IC50 [1]	IC50 [2]	IC50 [3]	IC50 [4]	IC50 [5]	stability in simulated intestinal fluid (in words) [6]	HPLC peak area of drug ([6]; 0 min)	HPLC peak area of drug ([6]; 1 h)	HPLC peak area of drug ([6]; 2 h)	HPLC peak area of drug ([6]; 4 h)	HPLC peak area of drug ([6]; 6 h)	HPLC peak area of drug ([6]; 8 h)	HPLC peak area of drug ([6]; 12 h)	HPLC peak area of drug ([6]; 24 h)	stability in PBS (pH=7.4) (in words) [7]	HPLC peak area of drug ([7]; 0 min)	HPLC peak area of drug ([7]; 1 h)	HPLC peak area of drug ([7]; 2 h)	HPLC peak area of drug ([7]; 4 h)	HPLC peak area of drug ([7]; 6 h)	also measured
CCCCCCCCCCCCOC(=O)c1nccnc1C(=O)Nc1ccn([C@@H]2O[C@H](CO)[C@@H](O)C2(F)F)c(=O)n1 [Compound 4, Dodecyl-3-((1-((2R,4R,5R)-3,3-difluoro-4-hydroxy-5-(hydroxymethyl)-tetrahydrofuran-2-yl)-2-oxo-1,2-dihydropyrimidin-4-yl)carbamoyl)pyrazine-2-carboxylate]	< 2 µM	< 2 µM	2 µM	> 16 µM	> 16 µM	stable	288987.906	231129.797	196319.828	245622.906	247957.219	239958.297	247782.500	256782.600	stable	399795.688	379856.688	397725	373725.406	360109.813	HPLC peak area of drug ([7]; 8 h): 362068.688; HPLC peak area of drug ([7]; 12 h): 386125.688; HPLC peak area of drug ([7]; 24 h): 387541.688; solubility in water, in words [8]: cannot be dissolved in water well; weight loss rate ([9]; SL-01 high dose group 20 mg/Kg i.v.): 7%; effect on NCI-H460 tumor (growth curve and tumor weight), in words [9]: inhibitory effect
Nc1ccn([C@@H]2O[C@H](CO)[C@@H](O)C2(F)F)c(=O)n1 [Gemcitabine, gemcitabine, reference compound]	< 2 µM	< 1 µM	7 µM	> 16 µM	< 1 µM	degraded	643704.938	465528.594	410685.313	257604.125	197106.406	149816.906	9873.897	5571.352	stable	657583.875	646932.375	651326.375	647537.813	618724	Degrade % ([6]; 0 min): 0%; Degrade % ([6]; 1 h): 27.67%; Degrade % ([6]; 2 h): 36.2%; Degrade % ([6]; 4 h): 59.98%; Degrade % ([6]; 6 h): 69.37%; Degrade % ([6]; 8 h): 76.72%; Degrade % ([6]; 12 h): 98.46%; Degrade % ([6]; 24 h): 99.13%; HPLC peak area of drug ([7]; 8 h): 635026.875; HPLC peak area of drug ([7]; 12 h): 600425.125; HPLC peak area of drug ([7]; 24 h): 603669.813; solubility in water, in words [8]: can be easily dissolved in water; weight loss rate ([9]; gemcitabine positive control 10 mg/Kg i.v.): 14%; effect on NCI-H460 tumor (growth curve and tumor weight), in words [9]: inhibitory effect
